# Patent US20240083857A1, “2-Methyl-Quinazolines” (Bayer Pharma Aktiengesellschaft, priority 2017, published 2024)
# How the values were obtained:
# [1] = biological target: Epidermal Growth Factor Receptor (EGFR) (Homo sapiens (Human), UniProt P00533); test: EGFR kinase assay (TR-FRET); format: biochemical; settings: values given in μM; read-out: EGFR kinase inhibition IC50
# Outline: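 EGFR purified from A431 cells was preincubated with compound 15 min at 22° C in pH 7.0 Hepes buffer with MgCl2, MnCl2 and vanadate before reaction with a biotinylated peptide. After EDTA stop, phosphopeptide was detected by TR-FRET (anti-phosphotyrosine Tb-cryptate, streptavidin-XL665) as the 665/620 nm emission ratio.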
# [2] = biological target: human SOS1 (loading of human K-Ras^G12C-GDP with fluorescent GTP-analog) (Homo sapiens, UniProt Q07889); test: Biochemical assay 3: K-Ras^G12C activation assay by hSOS1 (HTRF); settings: no GTP; read-out: Assay 3 (KRAS-Activation by SOS no GTP) activity expressed as IC50
# Chain of Epidermal Growth Factor Receptor (EGFR) (P00533 25-1210): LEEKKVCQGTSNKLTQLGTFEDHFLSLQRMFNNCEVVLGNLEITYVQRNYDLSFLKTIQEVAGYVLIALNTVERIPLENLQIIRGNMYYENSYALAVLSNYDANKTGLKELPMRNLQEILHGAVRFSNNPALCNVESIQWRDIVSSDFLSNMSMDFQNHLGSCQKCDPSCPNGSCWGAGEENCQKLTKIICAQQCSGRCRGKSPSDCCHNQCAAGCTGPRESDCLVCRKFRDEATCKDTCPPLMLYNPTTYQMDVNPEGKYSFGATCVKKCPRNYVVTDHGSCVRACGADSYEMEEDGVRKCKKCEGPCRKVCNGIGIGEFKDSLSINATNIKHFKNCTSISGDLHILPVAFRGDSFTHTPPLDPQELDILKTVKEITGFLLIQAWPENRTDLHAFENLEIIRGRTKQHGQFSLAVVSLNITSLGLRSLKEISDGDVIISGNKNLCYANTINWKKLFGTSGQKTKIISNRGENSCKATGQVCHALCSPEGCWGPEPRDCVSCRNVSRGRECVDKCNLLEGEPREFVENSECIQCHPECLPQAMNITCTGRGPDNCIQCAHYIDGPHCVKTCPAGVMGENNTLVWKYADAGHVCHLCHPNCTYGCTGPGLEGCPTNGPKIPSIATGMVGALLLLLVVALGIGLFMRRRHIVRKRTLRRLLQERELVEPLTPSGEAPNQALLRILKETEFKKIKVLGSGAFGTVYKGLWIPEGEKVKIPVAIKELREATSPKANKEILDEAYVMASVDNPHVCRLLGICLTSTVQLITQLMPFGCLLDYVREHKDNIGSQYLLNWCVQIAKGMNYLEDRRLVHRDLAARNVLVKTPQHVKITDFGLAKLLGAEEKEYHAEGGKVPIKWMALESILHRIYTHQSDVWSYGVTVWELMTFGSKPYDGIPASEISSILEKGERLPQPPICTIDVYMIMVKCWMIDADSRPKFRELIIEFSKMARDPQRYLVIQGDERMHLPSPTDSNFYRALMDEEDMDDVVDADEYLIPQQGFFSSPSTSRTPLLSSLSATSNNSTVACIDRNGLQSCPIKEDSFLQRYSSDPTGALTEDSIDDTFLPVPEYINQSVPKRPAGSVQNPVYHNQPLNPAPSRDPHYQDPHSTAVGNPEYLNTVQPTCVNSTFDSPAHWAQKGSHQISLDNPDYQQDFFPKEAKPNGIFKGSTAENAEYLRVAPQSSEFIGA
SMILES,IC50 [1] [µM],IC50 [2] [nM]
"COc1cc2nc(C)nc(NC(C)c3ccc(-c4ccccc4CNCc4ccccc4)s3)c2cc1OC (stereo not drawn) [Example 365, N-[1-(5-{2-[(benzylamino)methyl]phenyl}thiophen-2-yl)ethyl]-6,7-dimethoxy-2-methylquinazolin-4-amine]",> 20,353
"CCCCNCc1ccccc1-c1ccc(C(C)Nc2nc(C)nc3cc(OC)c(OC)cc23)s1 (stereo not drawn) [Example 366, N-[1-(5-{2-[(butylamino)methyl]phenyl}thiophen-2-yl)ethyl]-6,7-dimethoxy-2-methylquinazolin-4-amine]",> 20,136
"CCNCc1ccccc1-c1ccc(C(C)Nc2nc(C)nc3cc(OC)c(OC)cc23)s1 (stereo not drawn) [Example 367, N-[1-(5-{2-[(ethylamino)methyl]phenyl}thiophen-2-yl)ethyl]-6,7-dimethoxy-2-methylquinazolin-4-amine]",> 20,99
